One assay relates to NCI-H1299 cells. Briefly: Cancer cell proliferation inhibition (Cell Counting Kit-8), lung cancer cell line. It counts as cell-based. The conditions noted are these: Homo sapiens, NCI-H1299, 264 h, 1000 nM, cultured seven to 11 days; read-out: % inhibition rate NCI-H129 9. The method in brief: (§1)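 Cells grown in RPMI1640, McCoy's 5a, L-15 or DMEM with 10% fetal bovine serum, seeded at 100 to 1,000 cells per well, then exposed to test compound at 1000 nM for seven to 11 days. Viability read by CCK-8; % inhibition = {1−(test/control)} × 100.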
(Tetrazolium dyes change colour on reduction, which living cells bring about.)

Another assay addresses EZH2 (Homo sapiens, UniProt Q15910). Briefly: AlphaLISA enzyme activity inhibition, EZH2. The format is biochemical. The conditions noted are these: for inhibition at 0.005 µM: 5nM test substance; for inhibition at 0.01 µM: 10nM test substance. The method in brief:
(§2)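 EZH1 or EZH2 was mixed with compound at 5 nM or 10 nM final in 20 mM Tris pH 8.0, 0.1% BSA, 0.5 mM DTT, then histone H3 peptide and SAM were added. After 2 h reaction, AlphaLISA acceptor and donor beads detected methylation; inhibition rate was calculated against DMSO control.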
(In general: Alpha assays give light when donor and acceptor beads are brought close together.)

The subject of the next assay is G401 cells. Briefly: Cancer cell proliferation inhibition (Cell Counting Kit-8), rhabdoid tumor cell line. The format is cell-based. The conditions noted are these: 1000 nM, cultured seven to 11 days; for inhibition at 1 µM: Homo sapiens, G-401, 264 h, read-out: % inhibition rate G401; for % inhibition rate G401: 1 µM. An outline of the steps:
(§3)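 Cells grown in RPMI1640, McCoy's 5a, L-15 or DMEM with 10% FBS, seeded at 100 to 1,000 cells/well and treated with test substance at 1000 nM for 7 to 11 days. Viability read by CCK-8; % inhibition = {1−(test/control)} × 100.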

The test system of a further assay is MKN-45 cells. Briefly: Cancer cell proliferation inhibition (Cell Counting Kit-8), gastric cancer cell line. It counts as cell-based. The conditions noted are these: Homo sapiens, MKN-45, 264 h, 1000 nM, cultured seven to 11 days; read-out: % inhibition rate MKN -45. An outline of the steps:
as §3

The test system of the next assay is Lovo cells. Briefly: Cancer cell proliferation inhibition (Cell Counting Kit-8), colorectal cancer cell line. It counts as cell-based. The conditions noted are these: 1000 nM, cultured seven to 11 days; for inhibition at 1 µM: Homo sapiens, LoVo, 264 h, read-out: % inhibition rate LoVo. The method in brief:
as §1

The test system of another assay is MIA-PaCa-2 cells. Briefly: Cancer cell proliferation inhibition (Cell Counting Kit-8), pancreatic cancer cell line. The format is cell-based. The note with it: Homo sapiens, MIA PaCa-2, 264 h, 1000 nM, cultured seven to 11 days; read-out: % inhibition rate MIA-Paca2. The method in brief: as §1
In another assay the test system is SW-13 cells. Briefly: Cancer cell proliferation inhibition (Cell Counting Kit-8), adrenal cancer cell line. The format is cell-based. The conditions noted are these: Homo sapiens, SW13, 264 h, 1000 nM, cultured seven to 11 days; read-out: % inhibition rate SW-13. An outline of the steps:
as §1

A further assay concerns the target EZH1 (Homo sapiens, UniProt Q92800). Briefly: AlphaLISA enzyme activity inhibition, EZH1. It counts as biochemical. The note with it: for inhibition at 0.005 µM: 5nM test substance; for inhibition at 0.01 µM: 10nM test substance. An outline of the steps:
as §2

EZH2, sequence (Q15910 whole entry, species assumed): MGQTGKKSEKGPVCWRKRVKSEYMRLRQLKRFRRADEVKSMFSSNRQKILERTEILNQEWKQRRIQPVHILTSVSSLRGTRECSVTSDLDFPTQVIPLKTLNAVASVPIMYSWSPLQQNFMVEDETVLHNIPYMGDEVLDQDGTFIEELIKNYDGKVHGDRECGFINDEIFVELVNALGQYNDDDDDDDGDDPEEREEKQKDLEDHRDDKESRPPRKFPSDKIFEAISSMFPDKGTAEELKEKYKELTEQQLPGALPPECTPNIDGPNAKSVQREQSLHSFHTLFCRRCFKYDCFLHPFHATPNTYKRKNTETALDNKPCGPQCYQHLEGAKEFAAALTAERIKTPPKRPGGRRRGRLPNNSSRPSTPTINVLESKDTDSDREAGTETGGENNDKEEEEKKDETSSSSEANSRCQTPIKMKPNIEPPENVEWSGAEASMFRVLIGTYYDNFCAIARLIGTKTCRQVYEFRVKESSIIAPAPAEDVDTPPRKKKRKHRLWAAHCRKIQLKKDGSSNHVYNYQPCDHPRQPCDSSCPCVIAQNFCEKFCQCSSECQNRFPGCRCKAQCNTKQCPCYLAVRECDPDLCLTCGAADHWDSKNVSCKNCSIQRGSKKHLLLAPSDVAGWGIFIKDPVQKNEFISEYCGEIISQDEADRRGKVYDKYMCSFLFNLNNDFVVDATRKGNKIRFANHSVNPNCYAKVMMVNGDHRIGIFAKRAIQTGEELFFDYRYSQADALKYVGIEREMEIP
EZH2, sequence (O75530 whole entry partner, species assumed): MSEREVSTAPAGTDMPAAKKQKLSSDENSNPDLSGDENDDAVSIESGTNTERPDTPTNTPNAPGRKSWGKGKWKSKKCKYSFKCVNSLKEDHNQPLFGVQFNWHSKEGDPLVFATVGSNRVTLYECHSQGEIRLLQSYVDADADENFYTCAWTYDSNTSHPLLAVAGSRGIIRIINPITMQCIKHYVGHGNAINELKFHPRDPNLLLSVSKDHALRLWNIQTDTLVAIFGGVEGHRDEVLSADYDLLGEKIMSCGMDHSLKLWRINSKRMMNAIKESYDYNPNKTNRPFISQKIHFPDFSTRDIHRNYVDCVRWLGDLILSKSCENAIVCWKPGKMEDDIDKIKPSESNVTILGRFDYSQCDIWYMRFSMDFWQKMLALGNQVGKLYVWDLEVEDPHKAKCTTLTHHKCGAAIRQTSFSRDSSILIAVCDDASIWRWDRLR
EZH2, sequence (Q15022 whole entry partner, species assumed): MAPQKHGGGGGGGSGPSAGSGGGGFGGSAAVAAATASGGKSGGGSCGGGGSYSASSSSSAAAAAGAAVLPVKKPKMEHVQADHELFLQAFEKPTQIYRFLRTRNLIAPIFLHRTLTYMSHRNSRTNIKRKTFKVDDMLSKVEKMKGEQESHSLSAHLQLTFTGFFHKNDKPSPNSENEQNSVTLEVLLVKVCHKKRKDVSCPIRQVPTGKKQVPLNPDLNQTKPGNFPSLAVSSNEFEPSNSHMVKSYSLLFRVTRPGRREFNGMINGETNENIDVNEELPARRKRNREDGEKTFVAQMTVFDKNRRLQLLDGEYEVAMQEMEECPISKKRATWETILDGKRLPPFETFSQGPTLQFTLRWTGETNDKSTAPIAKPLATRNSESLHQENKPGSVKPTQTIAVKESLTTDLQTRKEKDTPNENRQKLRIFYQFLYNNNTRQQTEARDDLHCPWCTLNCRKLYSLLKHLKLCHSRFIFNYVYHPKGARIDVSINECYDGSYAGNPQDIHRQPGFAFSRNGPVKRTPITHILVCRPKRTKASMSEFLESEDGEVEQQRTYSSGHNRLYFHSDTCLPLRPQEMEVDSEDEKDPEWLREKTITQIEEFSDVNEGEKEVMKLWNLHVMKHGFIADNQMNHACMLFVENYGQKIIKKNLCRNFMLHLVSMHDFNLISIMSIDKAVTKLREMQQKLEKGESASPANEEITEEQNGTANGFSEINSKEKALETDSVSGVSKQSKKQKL
EZH1, sequence (Q92800 whole entry, species assumed): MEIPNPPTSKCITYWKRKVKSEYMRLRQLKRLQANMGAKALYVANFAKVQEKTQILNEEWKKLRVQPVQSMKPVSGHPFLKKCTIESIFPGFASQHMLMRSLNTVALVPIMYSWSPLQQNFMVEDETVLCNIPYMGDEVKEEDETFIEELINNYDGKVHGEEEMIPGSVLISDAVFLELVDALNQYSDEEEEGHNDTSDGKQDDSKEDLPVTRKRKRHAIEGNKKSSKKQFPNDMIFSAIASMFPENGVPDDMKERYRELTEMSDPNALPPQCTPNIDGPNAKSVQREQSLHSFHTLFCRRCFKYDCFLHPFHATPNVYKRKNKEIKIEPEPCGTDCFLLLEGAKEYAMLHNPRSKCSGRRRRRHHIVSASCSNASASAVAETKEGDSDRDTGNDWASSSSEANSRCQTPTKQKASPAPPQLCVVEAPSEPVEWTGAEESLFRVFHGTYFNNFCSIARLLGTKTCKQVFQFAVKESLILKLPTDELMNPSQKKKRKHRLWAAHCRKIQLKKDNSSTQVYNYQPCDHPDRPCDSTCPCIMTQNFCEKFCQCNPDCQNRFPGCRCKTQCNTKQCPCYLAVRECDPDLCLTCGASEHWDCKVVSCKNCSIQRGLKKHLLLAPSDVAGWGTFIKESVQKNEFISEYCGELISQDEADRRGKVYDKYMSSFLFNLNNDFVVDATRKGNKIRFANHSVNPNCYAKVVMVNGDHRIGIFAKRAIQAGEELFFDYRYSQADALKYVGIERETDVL
EZH1, sequence (O75530 whole entry partner, species assumed): as the sequence (O75530 whole entry partner, species assumed) above
EZH1, sequence (Q15022 whole entry partner, species assumed): as the sequence (Q15022 whole entry partner, species assumed) above

As to `CSc1cc(C)[nH]c(=O)c1CNC(=O)c1cc(-c2cnc(N3C[C@@H](C)O[C@@H](C)C3)nc2)c2c(c1C)OC(C)(C1CCN(CC(F)(F)F)CC1)O2` (stereo partly drawn) [Compound 38, 7-(2-((2S,6R)-2,6-dimethylmorpholino)pyrimidin-5-yl)-2,4-dimethyl-N-((6-methyl-4-(methylthio)-2-oxo-1,2-dihydropyridin-3-yl)methyl)-2-(1-(2,2,2-trifluoroethyl)piperidin-4-yl)benzo[d][1,3]dioxole-5-carboxamide], the inhibition at 1 µM in the assay on NCI-H1299 cells was 30 to 70%; in the assay on G401 cells it was not below 70%; in the assay on MKN-45 cells, 30 to 70%; in the assay on Lovo cells it was not below 70%; with MIA-PaCa-2 cells, not above 30%; in the assay on SW-13 cells, not above 30%. Further, the inhibition at 0.005 µM is 57.4% against EZH2 and 40.6% on EZH1.
As for `COCCN(C)[C@H]1CC[C@H](C2(C)Oc3c(-c4ccc(OC)nc4)cc(C(=O)NCc4c(SC)cc(C)[nH]c4=O)c(C)c3O2)CC1` (relative stereo) [Compound 28, 2-(trans-4-((2-methoxyethyl)(methyl)amino)cyclohexyl)-7-(6-methoxypyridin-3-yl)-2,4-dimethyl-N-((6-methyl-4-(methylthio)-2-oxo-1,2-dihydropyridin-3-yl)methyl)benzo[d][1,3]dioxole-5-carboxamide], the inhibition at 1 µM in the assay with NCI-H1299 cells was not above 30%; in the assay with G401 cells it was 30 to 70%; in the assay with MKN-45 cells it was not above 30%; in the assay with Lovo cells, 30 to 70%; in the assay on MIA-PaCa-2 cells it was not above 30%; in the assay on SW-13 cells, 30 to 70%. In addition, the inhibition at 0.005 µM turned out to be 99.4% against EZH2 and 77.3% at EZH1.
In the case of `CCN(C)c1ncc(-c2cc(C(=O)NCc3c(SC)cc(C)[nH]c3=O)c(C)c3c2OC(C)(C2CCN(CC(F)F)CC2)O3)cn1` (single isomer, unassigned) [Compound 81, 2-(1-(2,2-difluoroethyl)piperidin-4-yl)-7-(2-(ethyl(methyl)amino)pyrimidin-5-yl)-2,4-dimethyl-N-((6-methyl-4-(methylthio)-2-oxo-1,2-dihydropyridin-3-yl)methyl)benzo[d][1,3]dioxole-5-carboxamide], the inhibition at 1 µM was not above 30% in the assay with NCI-H1299 cells; 30 to 70% in the assay on MKN-45 cells; not below 70% in the assay on Lovo cells; not above 30% in the assay on MIA-PaCa-2 cells; 30 to 70% with SW-13 cells. The figures for the inhibition at 0.005 µM against EZH2 and against EZH1 were 99.2% and 80.4%, respectively. The inhibition at 0.01 µM on EZH2 is 99.8%; on EZH1 it was 90.8%. The “% inhibition rate G401” value with G401 cells is listed as “+++ (+++: ≥70%)”.
Regarding `CSc1cc(C)[nH]c(=O)c1CNC(=O)c1cc(-c2ccc3occc3c2)c2c(c1C)OC(C)(C1CCN(CC(F)(F)F)CC1)O2` (centres unmarked) [Compound 96, 7-(benzofuran-5-yl)-2,4-dimethyl-N-((6-methyl-4-(methylthio)-2-oxo-1,2-dihydropyridin-3-yl)methyl)-2-(1-(2,2,2-trifluoroethyl)piperidin-4-yl)benzo[d][1,3]dioxole-5-carboxamide], the inhibition at 1 µM in the assay on NCI-H1299 cells was not above 30%; in the assay on G401 cells, not above 30%; in the assay on MKN-45 cells, not above 30%; in the assay with Lovo cells, not below 70%; in the assay with MIA-PaCa-2 cells, not above 30%; with SW-13 cells, not above 30%. In addition, the inhibition at 0.005 µM at EZH2 turned out to be 58.4%; against EZH1, 19.2%. The inhibition at 0.01 µM stood at 78% against EZH2 and 14.8% against EZH1.
Turning to `CCN1CCN(c2ncc(-c3cc(C(=O)NCc4c(SC)cc(C)[nH]c4=O)c(C)c4c3OC(C)(C3CCN(CC(F)(F)F)CC3)O4)cn2)CC1` (centres unmarked) [Compound 75, 7-(2-(4-ethylpiperazin-1-yl)pyrimidin-5-yl)-2,4-dimethyl-N-((6-methyl-4-(methylthio)-2-oxo-1,2-dihydropyridin-3-yl)methyl)-2-(1-(2,2,2-trifluoroethyl)piperidin-4-yl)benzo[d][1,3]dioxole-5-carboxamide], the inhibition at 1 µM is not above 30% in the assay with NCI-H1299 cells; not below 70% in the assay with G401 cells; 30 to 70% in the assay with MKN-45 cells; not below 70% with Lovo cells; not above 30% with MIA-PaCa-2 cells; 30 to 70% with SW-13 cells. In addition, the inhibition at 0.005 µM on EZH2 amounted to 79%; against EZH1, 61.3%. Moreover, the figures for the inhibition at 0.01 µM on EZH2 and against EZH1 were 99.7% and 86%, respectively.
On to `CSc1cc(C)[nH]c(=O)c1CNC(=O)c1cc(-c2ccc(N3CCOCC3)nc2)c2c(c1C)OC(C)(C1CCN(CC(F)F)CC1)O2` (single isomer, unassigned) [Compound 64, 2-(1-(2,2-difluoroethyl)piperidin-4-yl)-2,4-dimethyl-N-((6-methyl-4-(methylthio)-2-oxo-1,2-dihydropyridin-3-yl)methyl)-7-(6-morpholinopyridin-3-yl)benzo[d][1,3]dioxole-5-carboxamide], for which the inhibition at 1 µM with NCI-H1299 cells is not above 30%; with MKN-45 cells, 30 to 70%; in the assay with MIA-PaCa-2 cells, not above 30%; in the assay on SW-13 cells, 30 to 70%. Also, the inhibition at 0.005 µM against EZH2 was 99.2%; against EZH1 it was 82.5%. Moreover, the inhibition at 0.01 µM on EZH2 is 99.6%; on EZH1, 90.5%. Also, the “% inhibition rate G401” value in the assay on G401 cells was “+++ (+++: ≥70%)”. For the same molecule, the “% inhibition rate LoVo” value in the assay with Lovo cells (1 µM) was “+++ (+++: ≥70%)”.
As to `COC1CN([C@H]2CC[C@H](C3(C)Oc4c(-c5ccc(N6C[C@@H](C)O[C@@H](C)C6)nc5)cc(C(=O)NCc5c(SC)cc(C)[nH]c5=O)c(C)c4O3)CC2)C1` (stereo partly drawn) [Compound 106, 7-(6-((2S,6R)-2,6-dimethylmorpholino)pyridin-3-yl)-2-(trans-4-(3-methoxyazetidin-1-yl)cyclohexyl)-2,4-dimethyl-N-((6-methyl-4-(methylthio)-2-oxo-1,2-dihydropyridin-3-yl)methyl)benzo[d][1,3]dioxole-5-carboxamide], the inhibition at 1 µM with NCI-H1299 cells was 30 to 70%; with G401 cells, not below 70%; with MKN-45 cells, not above 30%; with Lovo cells, not below 70%; in the assay with MIA-PaCa-2 cells it was not above 30%; in the assay with SW-13 cells it was 30 to 70%. The results for the inhibition at 0.005 µM against EZH2 and against EZH1 were 90.6% and 34.2%, respectively. The inhibition at 0.01 µM against EZH2 was determined as 99.9%; on EZH1, 69.1%.
For the molecule `CSc1cc(C)[nH]c(=O)c1CNC(=O)c1cc(-c2ccc(N3CC(C)CC(C)C3)nc2)c2c(c1C)OC(C)([C@H]1CC[C@H](N(C)C)CC1)O2` (relative stereo) [Compound 16, 2-(trans-4-(dimethylamino)cyclohexyl)-7-(6-(3,5-dimethylpiperidin-1-yl)pyridin-3-yl)-2,4-dimethyl-N-((6-methyl-4-(methylthio)-2-oxo-1,2-dihydropyridin-3-yl)methyl)benzo[d][1,3]dioxole-5-carboxamide], the inhibition at 1 µM was not above 30% in the assay on NCI-H1299 cells; 30 to 70% in the assay on G401 cells; 30 to 70% in the assay with MKN-45 cells; not below 70% in the assay with Lovo cells; not above 30% in the assay on MIA-PaCa-2 cells; not below 70% in the assay with SW-13 cells. For the same molecule, the inhibition at 0.005 µM against EZH2 came to 92.4%; on EZH1 it was 69%.

As a reminder, the inhibition is the percentage by which the read-out fell short of the control.

For the origin of these results see patent EP4740948A1 (Dong Wha Pharm. Co., Ltd., priority 2023, dated 2025).
